| SMILES | melting point |
| --- | --- |
| CCCN(CCC)c1c(CC)nn2c(-c3ccc(OC)cc3Cl)cccc12 [Example 13, 7-(2-Chloro-4-methoxyphenyl)-2-ethyl-N,N-dipropylpyrazolo[1,5-a]pyridin-3-amine] | 73.6 to 76 °C |
| CCCN(CCC)c1c(CC)nn2c(-c3ccc(Cl)cc3Cl)cccc12.O=C(O)/C=C\C(=O)O [Example 11, 7-(2,4-Dichlorophenyl)-2-ethyl-N,N-dipropylpyrazolo[1,5-a]pyridin-3-amine maleic acid salt] | 106 to 112 °C |
| CCCN(CCC)c1c(CC)nn2c(-c3ccc(OC)cc3C)cccc12 [Example 12, 2-Ethyl-7-(4-methoxy-2-methylphenyl)-N,N-dipropylpyrazolo[1,5-a]pyridin-3-amine] | 76 to 79 °C |

Further lines, results first:

| melting point | SMILES |
| --- | --- |
| 111.9 to 114.9 °C | COc1ccc(-c2cccc3c(C(C)C)c(C)nn23)c(Cl)c1 [Example 40, 7-(2-Chloro-4-methoxyphenyl)-3-isopropyl-2-methylpyrazolo[1,5-a]pyridine] |
| 132.8 to 134.3 °C | CCCN(CCC)c1c(CC)nn2c(-c3ccc(N(C)C)cc3Cl)cccc12 [Example 16, 7-[2-Chloro-4-(dimethylamino)phenyl]-2-ethyl-N,N-dipropylpyrazolo[1,5-a]pyridin-3-amine] |
| 69.1 to 79.8 °C | CCCN(CCC)c1c(CC)nn2c(-c3ccc(N(C)C)cc3C(F)(F)F)cccc12 [Example 14, 7-[4-(Dimethylamino)-2-(trifluoromethyl)phenyl]-2-ethyl-N,N-dipropylpyrazolo[1,5-a]pyridin-3-amine] |
| 98.5 to 100.3 °C | CCCN(CCC)c1c(CC)nn2c(-c3cnc(N(C)C)cc3C)cccc12 [Example 18, 7-[6-(Dimethylamino)-4-methylpyridin-3-yl]-2-ethyl-N,N-dipropylpyrazolo[1,5-a]pyridin-3-amine] |
| 45.8 to 52.8 °C | CCc1nn2c(-c3ccc(OC)cc3Cl)cccc2c1N(CCF)CCOC [Example 25, 7-(2-Chloro-4-methoxyphenyl)-2-ethyl-N-(2-fluoroethyl)-N-(2-methoxyethyl)pyrazolo[1,5-a]pyridin-3-amine] |

Source: US7151109B2, “Pyrazolo[1,5-a]pyridine derivatives and their use as neurotransmitter modulators” (Pharmacia & Upjohn Company LLC, priority 2002, dated 2006)
